Results published in patent publication US20110183336A1, “Method to Predict Responsiveness of Breast Cancer to Polyamine-Type Chemotherapy” (THE REGENTS OF THE UNIVERSITY OF CALIFORNIA, priority 2007, published 2011).

Key:
Type in all cases: cell-based, human
[1] = test system: 600MPE; assay: Cell growth inhibition assay (Cell Titer Glo); settings: Luminal, 72 h
Protocol: (§1) Cell culture: Breast cell lines were obtained from the ATCC and from collections developed in the laboratories of Drs. Steve Ethier and Adi Gazdar.
(§2) Cell growth inhibition assay and data analysis: Cells were plated at proper density in 96-well plates such that they would remain in log growth at the end of assay time. The cells were allowed to attach overnight before being exposed to CGC-11047 for 72 h. Drugs were dissolved in water as 100 mM stock. For the dose response study, a set of 9 doses from 5×10^−3 to 1.3×10^−8 M (final concentration) in 1:5 serial dilution were added in triplicate wells. The final DMSO concentration in the treated well was 0.3% or less. The cell growth was determined using Cell Titer Glo (CTG) assay (CellTiter-Glo Luminescent Cell Viability Assay, Promega, Madison, Wis.), with slight modification form manufacturer's protocol, at day 0 (time when drug was added) and at day 3 of drug exposure. Briefly, CTG reagent was diluted with PBS (1:1, volume: volume) and the culture media was removed from the 96-well plate prior to adding 50 μl per well of the diluted CTG reagent. Luminescence from the assay was recorded using BIO-TEK FLx800.
(§3) Data calculations were made according to the method described by the NCI/NIH DTP Human Tumor Cell Line Screen Process (http://dtp.nci.nih.gov/branches/btb/ivclsp.html) and as described previously (Monks, A et al., JNCI 83:757-766, 1991). The percent growth curve is calculated as [(T−T0)/(C−T0)]×100, where T0 is the cell count at day 0, C is the vehicle control (e.g. 0.3% DMSO without drug) cell count at day 3, and T is the cell count at the test concentration. The GI50 and TGI value are determined as the drug concentration that results in a 50% and 0% growth at 72 h drug exposure. LC50 is calculated as [(T−T0)/T0]×100=−50, when T<T0.

[2] = test system: BT474; assay: Cell growth inhibition assay (Cell Titer Glo); settings: BT474, Luminal, 72 h
Protocol: as §1, §2, §3

[3] = test system: HCC1419; assay: Cell growth inhibition assay (Cell Titer Glo); settings: HCC1419, Luminal, 72 h
Protocol: as §1, §2, §3

[4] = test system: HCC1806; assay: Cell growth inhibition assay (Cell Titer Glo); settings: HCC1806, Basal A, 72 h
Protocol: as §1, §2, §3

[5] = test system: HCC1937; assay: Cell growth inhibition assay (Cell Titer Glo); settings: HCC1937, Basal A, 72 h
Protocol: as §1, §2, §3

[6] = test system: HCC1954; assay: Cell growth inhibition assay (Cell Titer Glo); settings: HCC1954, Basal A, 72 h
Protocol: as §1, §2, §3

[7] = test system: Hs578T; assay: Cell growth inhibition assay (Cell Titer Glo); settings: Basal B, 72 h
Protocol: as §1, §2, §3

[8] = test system: MCF10F; assay: Cell growth inhibition assay (Cell Titer Glo); settings: N, Basal A, 72 h
Protocol: as §1, §2, §3

[9] = test system: MCF7; assay: Cell growth inhibition assay (Cell Titer Glo); settings: MCF7, Luminal, 72 h
Protocol: as §1, §2, §3

[10] = test system: MDAMB415; assay: Cell growth inhibition assay (Cell Titer Glo); settings: MDAMB415, Luminal, 72 h
Protocol: as §1, §2, §3

[11] = test system: S1; assay: Cell growth inhibition assay (Cell Titer Glo); settings: S1, HMEC, 72 h
Protocol: as §1, §2, §3

[12] = test system: SUM149PT; assay: Cell growth inhibition assay (Cell Titer Glo); settings: Basal B, 72 h
Protocol: as §1, §2, §3

[13] = test system: SUM159PT; assay: Cell growth inhibition assay (Cell Titer Glo); settings: Basal B, 72 h
Protocol: as §1, §2, §3

[14] = test system: SUM185PE; assay: Cell growth inhibition assay (Cell Titer Glo); settings: Luminal, 72 h
Protocol: as §1, §2, §3

[15] = test system: ZR75B; assay: Cell growth inhibition assay (Cell Titer Glo); settings: Luminal, 72 h
Protocol: as §1, §2, §3

[16] = test system: T47D cells; assay: BrdU incorporation and cell cycle distribution; settings: T47D (FIG. 5); 0.3, 10 and 300 uM; 48 and 72 hrs
Protocol: (§4) FIGS. 5A and 5B. Effect of CGC-11047 on T47D cells with respect to cell cycle and apoptosis. In FIG. 5A, cells were treated for 72 hours with 0, 0.3, 10, or 100 μM CGC-11047. Shown are percentage of the cell population is G0-G1, S, or G2-M phase of cell growth. In FIG. 5B, cells were treated for […], 48, or 72 hours with 0.3, 10, or 300 μM CGC-11047. Shown is the caspase activity (apoptosis) of treated cells within each condition compared to untreated controls.
BrdU cell staining and labeling: After incubation of cells with CGC-11047 at specified concentrations for 24, 48, and 72 hours, cells were pulsed with a final BrdU concentration of 10 uM for 30 minutes. Cells were then fixed with −20° C. 70% ethanol overnight. Fixed cells were incubated with 2N HCl for 5-7 minutes to denature DNA. Cell were then rinsed with 1× PBS to neutralize HCl.
Cells were incubated with primary donkey anti-BrdU antibody (diluted 1:100 in 0.5% PBS-tween20) for 1 hour then rinsed well with 0.5% PBS-tween20. Cells were incubated with Hoechst 33642 (diluted 1:2000) and secondary anti-donkey antibody (diluted 1:500) for 45 minutes and washed well with PBS-tween. […]
(§5) Select sensitive cell lines were treated with CGC-11047 at 0.3, 10 and 300 uM. BrdU incorporation was measured and cell cycle distribution was analyzed at 48 and 72 hrs. Apoptosis was measured using the Promega Caspase Glo 3/7 assay.

[17] = test system: T47D cells; assay: Caspase Glo 3/7 assay (apoptosis); settings: T47D (FIG. 5); 0.3, 10 and 300 uM
Protocol: as §4
Caspase Glo assay: Apoptosis was measured using the Promega Caspase Glo 3/7 assay (Promega, Madison, Wis.). Lyophilized pellet was eluted in solvent to make working Caspase Glo reagent. After incubation of cells with CGC-11047 at specified concentrations for 24, 48, and 72 hours, 50 ul of Caspase Glo reagent was added to the wells. After an incubation time of 1 hour, luminescence was measured using a luminometer.
as §5

## CCNCCCNC/C=C\CNCCCNCC [CGC-11047]
[1]; Homo sapiens
  GI50: 2 µM
[1]
  TGI: 2000 µM
[2]
  TGI: 1000 µM
[2]; Homo sapiens, BT-474
  GI50: 400 µM
[3]
  TGI: 31 µM
[3]; Homo sapiens
  GI50: 7 µM
[4]
  TGI: 330 µM
[4]; Homo sapiens
  GI50: 0.6 µM
[5]
  TGI: 300 µM
[5]; Homo sapiens
  GI50: 0.8 µM
[6]
  TGI: 8 µM
[6]; Homo sapiens
  GI50: 1 µM
[7]
  TGI: 500 µM
[7]; Homo sapiens, Hs-578T
  GI50: 0.4 µM
[8]; Homo sapiens, MCF-10F
  GI50: 100 µM
[8]
  TGI: 1100 µM
[9]; Homo sapiens
  GI50: 90 µM
[9]
  TGI: 1200 µM
[10]; Homo sapiens, MDA-MB-415
  GI50: 20 µM
[10]
  TGI: 100 µM
[11]; Homo sapiens
  GI50: 0.8 µM
[11]
  TGI: 3000 µM
[12]
  TGI: 800 µM
[12]; Homo sapiens
  GI50: 2 µM
[13]
  TGI: 3000 µM
[13]; Homo sapiens, SUM-159-PT
  GI50: 200 µM
[14]; Homo sapiens
  GI50: 300 µM
[14]
  TGI: >500 µM
[15]; Homo sapiens, ZR-75B
  GI50: 200 µM
[15]
  TGI: 2000 µM
[16]
  cell cycle distribution / BrdU incorporation: very little changes in the cell cycle
[17]
  apoptosis (caspase 3/7 activity): significant accumulation of apoptosis
